Results published in the supplement of paper PMC8617591.

Key:
[1] = tested on: Mycobacterium tuberculosis Erdman (autoluminescent); experiment: total FIC50 (Loewe) at 50% inhibition, three-drug combination (log2); higher = more antagonistic
Description: (§1)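 DiaMOND equipotent three-drug combination dose responses (10 doses, 1.5- or 2-fold spacing, centred on IC90) against autoluminescent M. tuberculosis Erdman in 8 in vitro models. Read-out is OD600, or luminescence for the intracellular and dormancy models, normalised to untreated wells. Hill-fit Einf, AUC25 and GRinf are potency metrics; FIC50 and FIC90 are total Loewe fractional inhibitory concentrations as log2 (negative = synergy).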

[2] = tested on: Mycobacterium tuberculosis Erdman (autoluminescent); experiment: total FIC90 (Loewe) at 90% inhibition, three-drug combination (log2); higher = more antagonistic
Description: as §1

[3] = tested on: Mycobacterium tuberculosis Erdman (autoluminescent); experiment: Einf, fitted maximum growth inhibition of three-drug combination (fraction); higher = stronger maximal inhibition
Description: as §1

[4] = tested on: Mycobacterium tuberculosis Erdman (autoluminescent); experiment: AUC25, normalised area under dose response up to IC25 (three-drug combination) (fraction (0-1)); higher = more potent at low dose
Description: as §1

[5] = tested on: Mycobacterium tuberculosis Erdman (autoluminescent); experiment: GRinf, maximum normalised growth rate inhibition (three-drug combination) (unitless (-1 to 1)); higher = less effect (negative = killing)
Description: as §1

CC[C@@H](CO)NCCN[C@@H](CC)CO [ethambutol] + COc1c(N2C[C@@H]3CCCN[C@@H]3C2)c(F)cc2c(=O)c(C(=O)O)cn(C3CC3)c12 [moxifloxacin] + CO[C@H]1/C=C/O[C@@]2(C)Oc3c(C)c(O)c4c(O)c(c(/C=N/N5CCN(C)CC5)c(O)c4c3C2=O)NC(=O)/C(C)=C\C=C\[C@H](C)[C@H](O)[C@@H](C)[C@@H](O)[C@@H](C)[C@H](OC(C)=O)[C@@H]1C [rifampicin]
Conditions	AUC25, [4]	Einf, [3]	GRinf, [5]	total FIC50, [1]	total FIC90, [2]
in vitro model: acidic pH 5.7, time point: constant (~7 days, model-specific)	0.0728	0.842	0.00792	0.27	–
in vitro model: acidic pH 5.7, time point: terminal (~4-5 doublings, model-specific)	0.033	0.969	-0.0608	0.591	-0.139
in vitro model: intracellular J774, time point: constant = terminal	–	0.965	-0.353	–	-1.82

Conditions	AUC25, [4]	Einf, [3]	GRinf, [5]	total FIC50, [1]	total FIC90, [2]
in vitro model: butyrate, time point: constant (~7 days, model-specific)	0.0797	0.924	-0.0218	0.419	–
in vitro model: butyrate, time point: terminal (~4-5 doublings, model-specific)	0.0647	0.966	-0.0188	0.334	-0.296
in vitro model: cholesterol 0.05 mM, time point: constant (~7 days, model-specific)	0.104	0.602	0.0718	0.0825	–
in vitro model: cholesterol 0.05 mM, time point: terminal (~4-5 doublings, model-specific)	0.082	0.876	0.198	0.896	–
in vitro model: cholesterol-high 0.2 mM, time point: constant (~7 days, model-specific)	0.0425	0.937	-0.354	1.01	–
in vitro model: cholesterol-high 0.2 mM, time point: terminal (~4-5 doublings, model-specific)	0.0582	1	-0.753	1.13	1.05
in vitro model: dormancy (butyrate + nitrate, low O2), time point: constant (~7 days, model-specific)	0.0959	0.838	0.346	-0.35	–
in vitro model: dormancy (butyrate + nitrate, low O2), time point: terminal (~4-5 doublings, model-specific)	0.0588	0.985	-0.0843	0.268	-0.495
in vitro model: standard 7H9 glycerol, time point: constant = terminal	0.0299	0.861	0.231	0.166	–
in vitro model: valerate, time point: constant (~7 days, model-specific)	0.0379	0.867	0.0142	0.576	–
in vitro model: valerate, time point: terminal (~4-5 doublings, model-specific)	0.0266	0.93	0.0403	0.645	-0.611

CC[C@@H](CO)NCCN[C@@H](CC)CO [ethambutol] + COc1c(N2C[C@@H]3CCCN[C@@H]3C2)c(F)cc2c(=O)c(C(=O)O)cn(C3CC3)c12 [moxifloxacin] + NC(=O)c1cnccn1 [pyrazinamide]
Conditions	AUC25, [4]	Einf, [3]	GRinf, [5]	total FIC50, [1]	total FIC90, [2]
in vitro model: acidic pH 5.7, time point: constant (~7 days, model-specific)	0.106	0.781	-0.213	0.429	–
in vitro model: acidic pH 5.7, time point: terminal (~4-5 doublings, model-specific)	0.0713	0.959	-0.294	0.98	0.0827
in vitro model: intracellular J774, time point: constant = terminal	–	0.98	-0.497	–	-0.596

Conditions	AUC25, [4]	Einf, [3]	GRinf, [5]	total FIC50, [1]	total FIC90, [2]
in vitro model: butyrate, time point: constant (~7 days, model-specific)	0.108	0.926	0.001	0.345	–
in vitro model: butyrate, time point: terminal (~4-5 doublings, model-specific)	0.0814	0.967	-0.00667	0.477	0.431
in vitro model: cholesterol 0.05 mM, time point: constant (~7 days, model-specific)	0.12	0.683	-0.365	–	–
in vitro model: cholesterol 0.05 mM, time point: terminal (~4-5 doublings, model-specific)	0.135	0.8	-0.21	0.703	–
in vitro model: cholesterol-high 0.2 mM, time point: constant (~7 days, model-specific)	0.0703	0.962	-0.373	1.02	–
in vitro model: cholesterol-high 0.2 mM, time point: terminal (~4-5 doublings, model-specific)	0.0603	1	-0.587	1.29	1.24
in vitro model: dormancy (butyrate + nitrate, low O2), time point: constant (~7 days, model-specific)	0.0861	0.816	0.46	-0.23	–
in vitro model: dormancy (butyrate + nitrate, low O2), time point: terminal (~4-5 doublings, model-specific)	0.0923	0.979	-0.107	0.189	-0.144
in vitro model: standard 7H9 glycerol, time point: constant = terminal	0.0574	0.966	-0.145	–	–
in vitro model: valerate, time point: constant (~7 days, model-specific)	0.0872	0.884	-0.169	0.599	–
in vitro model: valerate, time point: terminal (~4-5 doublings, model-specific)	0.0506	0.945	-0.037	0.696	-0.119

CC[C@@H](CO)NCCN[C@@H](CC)CO [ethambutol] + COc1c(N2C[C@@H]3CCCN[C@@H]3C2)c(F)cc2c(=O)c(C(=O)O)cn(C3CC3)c12 [moxifloxacin] + O=[N+]([O-])c1cn2c(n1)OC[C@@H](OCc1ccc(OC(F)(F)F)cc1)C2 [pretomanid]
Conditions	AUC25, [4]	Einf, [3]	GRinf, [5]	total FIC50, [1]	total FIC90, [2]
in vitro model: acidic pH 5.7, time point: constant (~7 days, model-specific)	0.124	0.718	-0.388	0.434	–
in vitro model: acidic pH 5.7, time point: terminal (~4-5 doublings, model-specific)	0.0788	0.939	-0.335	1.03	0.811
in vitro model: intracellular J774, time point: constant = terminal	–	0.999	-0.573	–	-1.12

Conditions	AUC25, [4]	Einf, [3]	GRinf, [5]	total FIC50, [1]	total FIC90, [2]
in vitro model: butyrate, time point: constant (~7 days, model-specific)	0.0791	0.94	-0.0315	0.478	–
in vitro model: butyrate, time point: terminal (~4-5 doublings, model-specific)	0.0604	0.968	-0.039	0.42	0.0737
in vitro model: cholesterol 0.05 mM, time point: constant (~7 days, model-specific)	0.106	0.669	-0.247	0.987	–
in vitro model: cholesterol 0.05 mM, time point: terminal (~4-5 doublings, model-specific)	0.116	0.927	-0.457	0.0988	1.38
in vitro model: cholesterol-high 0.2 mM, time point: constant (~7 days, model-specific)	0.0657	0.89	-0.187	0.925	–
in vitro model: cholesterol-high 0.2 mM, time point: terminal (~4-5 doublings, model-specific)	0.0467	1	-0.609	1.12	1.04
in vitro model: dormancy (butyrate + nitrate, low O2), time point: constant (~7 days, model-specific)	0.116	0.835	0.349	0.37	–
in vitro model: dormancy (butyrate + nitrate, low O2), time point: terminal (~4-5 doublings, model-specific)	0.126	0.986	-0.335	-0.414	0.703
in vitro model: standard 7H9 glycerol, time point: constant = terminal	0.0753	0.974	-0.251	0.294	0.564
in vitro model: valerate, time point: constant (~7 days, model-specific)	0.0943	0.862	-0.00882	-0.131	–
in vitro model: valerate, time point: terminal (~4-5 doublings, model-specific)	0.0516	0.929	0.0316	0.26	-0.798
